Results as given in ChEMBL document CHEMBL1129917, “Structure-based design of novel, dipeptide ligands targeting the pp60Src SH2 domain” (Bioorg Med Chem Lett, 1997).
pIC50: −log10 of the molar value.

Target: Proto-oncogene tyrosine-protein kinase Src (Homo sapiens, UniProt P12931)
Assay: Inhibition of [125I]-labeled phosphopeptide binding to a Src protein tyrosine kinase SH2 domain.

Chain of Proto-oncogene tyrosine-protein kinase Src (P12931 2-536 limits assumed): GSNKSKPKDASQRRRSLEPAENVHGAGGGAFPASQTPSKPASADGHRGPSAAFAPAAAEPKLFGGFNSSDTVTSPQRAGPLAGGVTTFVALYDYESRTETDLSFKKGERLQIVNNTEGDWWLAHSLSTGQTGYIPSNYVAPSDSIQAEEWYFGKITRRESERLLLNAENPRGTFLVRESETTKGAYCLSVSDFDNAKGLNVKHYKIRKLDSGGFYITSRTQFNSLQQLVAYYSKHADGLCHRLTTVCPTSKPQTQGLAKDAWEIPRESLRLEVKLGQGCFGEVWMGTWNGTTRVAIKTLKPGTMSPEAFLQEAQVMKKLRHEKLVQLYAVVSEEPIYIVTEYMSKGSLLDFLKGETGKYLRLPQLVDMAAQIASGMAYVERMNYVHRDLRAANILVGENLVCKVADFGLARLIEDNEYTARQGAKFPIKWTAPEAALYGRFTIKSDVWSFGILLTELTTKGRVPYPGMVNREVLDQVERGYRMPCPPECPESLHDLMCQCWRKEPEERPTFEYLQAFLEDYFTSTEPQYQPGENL

How did the pIC50 turn out when `CC(=O)N[C@@H](Cc1ccc(OP(=O)(O)O)cc1)C(=O)NCC(=O)NCCCc1ccccc1` was run?
Its pIC50 is roughly 4.34.

With `CC(=O)N[C@@H](Cc1ccc(OP(=O)(O)O)cc1)C(=O)N[C@@H](CCC(=O)O)C(=O)NCCc1cccc2ccccc12` as the compound, how does the pIC50 read?
Its pIC50 is 5.32.

`CC(=O)N[C@@H](Cc1ccc(OP(=O)(O)O)cc1)C(=O)N[C@@H](C)C(=O)NCCCc1ccccc1` was tested. Which pIC50 did it give?
The pIC50 was 4.82.

With `CC(=O)N[C@@H](Cc1ccc(OP(=O)(O)O)cc1)C(=O)N[C@@H](Cc1ccc(OP(=O)(O)O)cc1)C(=O)NCCCc1ccccc1` as the compound, how does the pIC50 read?
The pIC50 was 5.41.

How did the pIC50 turn out when `CC(=O)N[C@@H](Cc1ccc(OP(=O)(O)O)cc1)C(=O)N[C@@H](CCC(=O)O)C(=O)NCCC1=CC=CC2CCCCC12` (stereo partly specified) was run?
The pIC50 was 5.49.

`CC(=O)N[C@@H](Cc1ccc(OP(=O)(O)O)cc1)C(=O)N[C@H](C(=O)NCCCc1ccccc1)C(C)C` was tested. Which pIC50 did it give?
The pIC50 was roughly 4.52.

`CCC[C@H](NC(=O)[C@H](Cc1ccc(OP(=O)(O)O)cc1)NC(C)=O)C(=O)NCCCc1ccccc1` was tested. Which pIC50 did it give?
The pIC50 was 4.92.

How did the pIC50 turn out when `CC(=O)N[C@@H](Cc1ccc(OP(=O)(O)O)cc1)C(=O)N[C@@H](C)C(=O)N(CCCC(=O)O)CCCc1ccccc1` was run?
The pIC50 was 5.19.

`CC(=O)N[C@@H](Cc1ccc(OP(=O)(O)O)cc1)C(=O)N[C@@H](CCC(=O)O)C(=O)N[C@@H](CCC(N)=O)Cc1cccc2ccccc12` was tested. Which pIC50 did it give?
The pIC50 was 5.64.

`CC(=O)N[C@@H](Cc1ccc(OP(=O)(O)O)cc1)C(=O)N[C@@H](Cc1ccc(OP(=O)(O)O)cc1)C(=O)N[C@@H](Cc1ccc(OP(=O)(O)O)cc1)C(N)=O` was tested. Which pIC50 did it give?
Its pIC50 is 6.62.

With `CCc1ccccc1CCNC(=O)[C@H](CCC(=O)O)NC(=O)[C@H](Cc1ccc(OP(=O)(O)O)cc1)NC(C)=O` as the compound, how does the pIC50 read?
Its pIC50 is 5.34.

How did the pIC50 turn out when `CC(=O)N[C@@H](Cc1ccc(OP(=O)(O)O)cc1)C(=O)N[C@@H](CCC(=O)O)C(=O)N(C)CCCc1ccccc1` was run?
The pIC50 was 5.46.

How did the pIC50 turn out when `CCCC(NC(=O)[C@H](Cc1ccc(OP(=O)(O)O)cc1)NC(C)=O)C(=O)N(CCCC(=O)O)CCCc1ccccc1` (stereo partly specified) was run?
The pIC50 was 5.37.

With `CC(=O)N[C@@H](Cc1ccc(OP(=O)(O)O)cc1)C(=O)N[C@@H](CCC(=O)O)C(=O)N(CCCC(=O)O)CCCc1ccccc1` as the compound, how does the pIC50 read?
Its pIC50 is 5.70.

`CC(=O)N[C@@H](Cc1ccc(OP(=O)(O)O)cc1)C(=O)N[C@@H](CCC(=O)O)C(=O)NCCc1ccccc1` was tested. Which pIC50 did it give?
The pIC50 was 5.04.

`CC(=O)N[C@@H](Cc1ccc(OP(=O)(O)O)cc1)C(=O)NCC(=O)N(CCCC(=O)O)CCCc1ccccc1` was tested. Which pIC50 did it give?
The pIC50 was 4.85.
